In the NIST ThermoML archive (doi:10.1007/s10765-006-0095-5):

Experiments:
[1] = refractive index (Na D-line) (dimensionless); xn = mol fraction of the nth substance listed; details: 101 kPa, Liquid
[2] = xn = mol fraction of the nth substance listed; details: 101 kPa, Liquid

CCCCN(CCCC)CCCC [tributylamine] + c1ccccc1
Details | mass density, [2] [kg/m3] | refractive index, [1]
278.15 K, x2 = 0.0702 | 790.1 | 1.4425
278.15 K, x2 = 0.1162 | 791.1 | 1.4495
278.15 K, x2 = 0.1687 | 792.5 | 1.4566
278.15 K, x2 = 0.2383 | 794.9 | 1.4636
278.15 K, x2 = 0.3091 | 797.7 | 1.4707
278.15 K, x2 = 0.4032 | 802.2 | 1.4779
278.15 K, x2 = 0.5043 | 808.5 | 1.485
278.15 K, x2 = 0.6492 | 821.3 | 1.4922
278.15 K, x2 = 0.8251 | 846.8 | 1.4994
283.15 K, x2 = 0.0702 | 786.7 | 1.4414
283.15 K, x2 = 0.1162 | 787.8 | 1.4485
283.15 K, x2 = 0.1687 | 789.3 | 1.4557
283.15 K, x2 = 0.2383 | 791.8 | 1.4628
283.15 K, x2 = 0.3091 | 794.6 | 1.47
283.15 K, x2 = 0.4032 | 799.2 | 1.4771
283.15 K, x2 = 0.5043 | 805.6 | 1.4842
283.15 K, x2 = 0.6492 | 818.5 | 1.4914
283.15 K, x2 = 0.8251 | 844.1 | 1.4985
288.15 K, x2 = 0.0702 | 783.2 | 1.4406
288.15 K, x2 = 0.1162 | 784.4 | 1.448
288.15 K, x2 = 0.1687 | 786 | 1.4551
288.15 K, x2 = 0.2383 | 788.5 | 1.4621
288.15 K, x2 = 0.3091 | 791.3 | 1.4692
288.15 K, x2 = 0.4032 | 795.9 | 1.4763
288.15 K, x2 = 0.5043 | 802.3 | 1.4834
288.15 K, x2 = 0.6492 | 815.2 | 1.4905
288.15 K, x2 = 0.8251 | 840.8 | 1.4976
293.15 K, x2 = 0.0702 | 779.9 | 1.4394
293.15 K, x2 = 0.1162 | 781.1 | 1.4466
293.15 K, x2 = 0.1687 | 782.7 | 1.4538
293.15 K, x2 = 0.2383 | 785.3 | 1.4609
293.15 K, x2 = 0.3091 | 788.1 | 1.4681
293.15 K, x2 = 0.4032 | 792.7 | 1.4752
293.15 K, x2 = 0.5043 | 799 | 1.4824
293.15 K, x2 = 0.6492 | 811.8 | 1.4896
293.15 K, x2 = 0.8251 | 837.1 | 1.4967
298.15 K, x2 = 0 | 774.3 | –
298.15 K, x2 = 0.0702 | 775.6 | 1.4385
298.15 K, x2 = 0.1162 | 776.9 | 1.4456
298.15 K, x2 = 0.1687 | 778.5 | 1.4527
298.15 K, x2 = 0.2383 | 781 | 1.4602
298.15 K, x2 = 0.3091 | 783.8 | 1.4671
298.15 K, x2 = 0.4032 | 788.3 | 1.4742
298.15 K, x2 = 0.5043 | 794.5 | 1.4816
298.15 K, x2 = 0.6492 | 807 | 1.4881
298.15 K, x2 = 0.8251 | 831.6 | 1.4951
303.15 K, x2 = 0 | 770.8 | –
303.15 K, x2 = 0.0702 | 772.5 | 1.4383
303.15 K, x2 = 0.1162 | 773.8 | 1.4454
303.15 K, x2 = 0.1687 | 775.4 | 1.4524
303.15 K, x2 = 0.2383 | 777.9 | 1.46
303.15 K, x2 = 0.3091 | 780.8 | 1.4667
303.15 K, x2 = 0.4032 | 785.4 | 1.474
303.15 K, x2 = 0.5043 | 791.6 | 1.4812
303.15 K, x2 = 0.6492 | 804.3 | 1.4876
303.15 K, x2 = 0.8251 | 829 | 1.4946
308.15 K, x2 = 0 | 767.2 | –
308.15 K, x2 = 0.0702 | 769.1 | 1.4374
308.15 K, x2 = 0.1162 | 770.4 | 1.4443
308.15 K, x2 = 0.1687 | 771.9 | 1.4514
308.15 K, x2 = 0.2383 | 774.4 | 1.4589
308.15 K, x2 = 0.3091 | 777.3 | 1.4658
308.15 K, x2 = 0.4032 | 781.9 | 1.4733
308.15 K, x2 = 0.5043 | 788.1 | 1.4803
308.15 K, x2 = 0.6492 | 800.6 | 1.4868
308.15 K, x2 = 0.8251 | 824.9 | 1.4936
313.15 K, x2 = 0 | 763.6 | –
313.15 K, x2 = 0.0702 | 765.5 | 1.4366
313.15 K, x2 = 0.1162 | 766.8 | 1.4438
313.15 K, x2 = 0.1687 | 768.4 | 1.4508
313.15 K, x2 = 0.2383 | 770.9 | 1.4581
313.15 K, x2 = 0.3091 | 773.8 | 1.465
313.15 K, x2 = 0.4032 | 778.4 | 1.4726
313.15 K, x2 = 0.5043 | 784.5 | 1.4795
313.15 K, x2 = 0.6492 | 797 | 1.486
313.15 K, x2 = 0.8251 | 821.1 | 1.4928
318.15 K, x2 = 0 | 759.8 | –
318.15 K, x2 = 0.0702 | 761.8 | 1.4358
318.15 K, x2 = 0.1162 | 763.1 | 1.4431
318.15 K, x2 = 0.1687 | 764.8 | 1.45
318.15 K, x2 = 0.2383 | 767.2 | 1.4575
318.15 K, x2 = 0.3091 | 770.1 | 1.4643
318.15 K, x2 = 0.4032 | 774.7 | 1.4718
318.15 K, x2 = 0.5043 | 780.8 | 1.4788
318.15 K, x2 = 0.6492 | 793.3 | 1.4853
318.15 K, x2 = 0.8251 | 817.2 | 1.492
